System: CHO cell line
Test: In vitro test of metabolization in CHO cells (steroids in culture medium by GC/MS)
Protocol: In Vitro Test of Metabolization
In this example, CHO cell line was used. These cells derived from the ovary have all the enzymes needed to metabolize pregnenolone in downstream steroids.
The content in CHO culture medium of allopregnanolone (ALLO), epiallopregnanolone (EPIALLO), pregnenolone (PREG), DHEA, and testosterone (TESTO) was measured by GC/MS.
Pregnenolone derivatives having C3 substituted with benzyloxy were tested using in vitro test in CHO cells.
Results expressed as percentage changes from CHO cells treated with Pregnenolone or as pg/ml (0=concentrations below the detection limit).

[1] = CHO culture medium, Pregnenolone 1 μM, 48 hours, GC/MS

| Structure (SMILES) | Allopregnanolone and Epiallopregnanolone in the culture medium (in words) (CHO cells, 1 μM, 48 hours) | ALLO (allopregnanolone) steroid levels [1] | DHEA steroid levels [1] | EPIALLO (epiallopregnanolone) steroid levels [1] | PREG (pregnenolone) steroid levels [1] | TESTO (testosterone) steroid levels [1] | metabolised in Pregnenolone (in words) (CHO cells, Table 2) |
| --- | --- | --- | --- | --- | --- | --- | --- |
| CC(=O)[C@H]1CC[C@H]2[C@@H]3CC=C4C[C@@H](O)CC[C@]4(C)[C@H]3CC[C@]12C [Pregnenolone] | significant increase | 3529.99 pg/mL | 0.00 pg/mL | 16963.84 pg/mL | 11440.66 pg/mL | 0.00 pg/mL | – |
| COc1ccc(CO[C@H]2CC[C@@]3(C)C(=CCC4C3CC[C@@]3(C)C4CC[C@]3(C)C(C)=O)C2)cc1 (stereo partly drawn) [Compound 68, 3β-(p-methoxy- benzyloxy)-17α- methyl- pregnenolone] | – | – | – | – | – | – | not metabolised |
